Kd data for eight molecules are collected here from ChEMBL document CHEMBL1130922, “Solid phase synthesis of oligomannopeptoids that mimic the concanavalin A-binding trimannoside” (Bioorg Med Chem Lett, 1998).

The nature of this experiment: Dissociation constant for binding to concanavalin A (ConA) was determined by fluorescence anisotropy assay.

For `CN(C)c1cccc2c(S(=O)(=O)N(CCO[C@H]3O[C@@H](CO)[C@@H](O)[C@H](O)[C@H]3O)CC(=O)N(CCO[C@H]3O[C@@H](CO)[C@@H](O)[C@H](O)[C@H]3O)CC(=O)N(CCO[C@H]3O[C@@H](CO)[C@@H](O)[C@H](O)[C@H]3O)CC(=O)N(CCO[C@H]3O[C@@H](CO)[C@@H](O)[C@H](O)[C@H]3O)CC(=O)N(CCO[C@H]3O[C@@H](CO)[C@@H](O)[C@H](O)[C@H]3O)CC(N)=O)cccc12`, the Kd is 14 uM l-1.
As to `CN(C)c1cccc2c(S(=O)(=O)N(CCO[C@H]3O[C@@H](CO)[C@@H](O)[C@H](O)[C@H]3O)CC(=O)N(CCO[C@H]3O[C@@H](CO)[C@@H](O)[C@H](O)[C@H]3O)CC(=O)N(CCO[C@H]3O[C@@H](CO)[C@@H](O)[C@H](O)[C@H]3O)CC(=O)N(CCO[C@H]3O[C@@H](CO)[C@@H](O)[C@H](O)[C@H]3O)CC(N)=O)cccc12`, the Kd is 12 uM l-1.
The value for `CN(C)c1cccc2c(S(=O)(=O)N(CCO[C@H]3O[C@@H](CO)[C@@H](O)[C@H](O)[C@H]3O)CC(=O)N(CCO[C@H]3O[C@@H](CO)[C@@H](O)[C@H](O)[C@H]3O)CC(=O)N(CCO[C@H]3O[C@@H](CO)[C@@H](O)[C@H](O)[C@H]3O)CC(N)=O)cccc12` was 9 uM l-1.
The value for `CN(C)c1cccc2c(S(=O)(=O)N(CCO[C@H]3O[C@@H](CO)[C@@H](O)[C@H](O)[C@H]3O)CC(N)=O)cccc12` was 31 uM l-1; that for `CN(C)c1cccc2c(S(=O)(=O)N(CCO[C@H]3O[C@@H](CO)[C@@H](O[C@H]4O[C@@H](CO)[C@@H](O[C@H]5O[C@@H](CO)[C@@H](O)[C@H](O)[C@H]5O)[C@H](O)[C@H]4O)[C@H](O)[C@H]3O)CC(N)=O)cccc12` was 2 uM l-1.
The same measure for `CN(C)c1cccc2c(S(=O)(=O)N(CCO[C@H]3O[C@@H](CO)[C@@H](O)[C@H](O)[C@H]3O)CC(=O)N(CCO[C@H]3O[C@@H](CO)[C@@H](O)[C@H](O)[C@H]3O)CC(N)=O)cccc12`: 18 uM l-1; for `CO[C@H]1[C@@H](OCCN(CC(N)=O)S(=O)(=O)c2cccc3c(N(C)C)cccc23)O[C@@H](CO)[C@@H](O)[C@@H]1O`: 122 uM l-1.
For the molecule `CN(C)c1cccc2c(S(=O)(=O)N(CCO[C@H]3O[C@@H](CO)[C@@H](O)[C@H](O)[C@H]3O)CC(=O)N(CCO[C@H]3O[C@@H](CO)[C@@H](O)[C@H](O)[C@H]3O)CC(=O)N(CCO[C@H]3O[C@@H](CO)[C@@H](O)[C@H](O)[C@H]3O)CC(=O)N(CCO[C@H]3O[C@@H](CO)[C@@H](O)[C@H](O)[C@H]3O)CC(=O)N(CCO[C@H]3O[C@@H](CO)[C@@H](O)[C@H](O)[C@H]3O)CC(=O)N(CCO[C@H]3O[C@@H](CO)[C@@H](O)[C@H](O)[C@H]3O)CC(N)=O)cccc12`, the Kd is recorded as 12 uM l-1.
